Tests used:
Assay in all cases: binding to VI16742 beads (HeLa lysate, SILAC MS)
[1] = molecular target: T1, APRT (IPI00218693) (Homo sapiens, UniProt P07741)
T1 construct: endogenous in cells; host or cells: HeLa S3
T1 sequence (P07741 1-180): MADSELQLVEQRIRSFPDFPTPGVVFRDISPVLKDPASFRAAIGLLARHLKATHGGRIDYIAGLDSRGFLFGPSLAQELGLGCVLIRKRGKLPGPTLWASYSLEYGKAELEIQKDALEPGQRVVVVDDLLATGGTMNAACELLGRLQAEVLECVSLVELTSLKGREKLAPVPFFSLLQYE
Procedure, shortened: (§1)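 Specific retention on the inhibitor resin served as the read-out of binding. The bait is a broadly selective kinase inhibitor built on a pyrido[2,3-d]pyrimidine scaffold, used for affinity capture from lysate.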

[2] = molecular target: T2, CDK6 (IPI00023529) (Homo sapiens, UniProt Q00534)
T2 construct: endogenous in cells; host or cells: HeLa S3
Procedure, shortened: as §1

[3] = molecular target: T3, DPH5 (IPI00375824) (Homo sapiens, UniProt Q9H2P9)
T3 construct: endogenous in cells; host or cells: HeLa S3
T3 sequence (Q9H2P9 1-285): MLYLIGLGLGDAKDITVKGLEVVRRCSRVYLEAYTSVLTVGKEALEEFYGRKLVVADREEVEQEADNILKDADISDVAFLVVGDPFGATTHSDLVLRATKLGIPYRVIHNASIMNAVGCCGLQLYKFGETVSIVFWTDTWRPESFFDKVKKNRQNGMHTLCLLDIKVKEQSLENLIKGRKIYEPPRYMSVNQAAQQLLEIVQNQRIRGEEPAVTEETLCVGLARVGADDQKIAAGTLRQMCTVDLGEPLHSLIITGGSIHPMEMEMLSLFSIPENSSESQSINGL
Procedure, shortened: as §1

[4] = molecular target: T4, HGK/ZC1 (MAP4K4, IPI00604647) (Homo sapiens, UniProt O95819)
T4 construct: endogenous in cells; host or cells: HeLa S3
Procedure, shortened: as §1

[5] = molecular target: T5, ILK (IPI00013219) (Homo sapiens, UniProt Q13418)
T5 construct: endogenous in cells; host or cells: HeLa S3
T5 sequence (Q13418 1-452): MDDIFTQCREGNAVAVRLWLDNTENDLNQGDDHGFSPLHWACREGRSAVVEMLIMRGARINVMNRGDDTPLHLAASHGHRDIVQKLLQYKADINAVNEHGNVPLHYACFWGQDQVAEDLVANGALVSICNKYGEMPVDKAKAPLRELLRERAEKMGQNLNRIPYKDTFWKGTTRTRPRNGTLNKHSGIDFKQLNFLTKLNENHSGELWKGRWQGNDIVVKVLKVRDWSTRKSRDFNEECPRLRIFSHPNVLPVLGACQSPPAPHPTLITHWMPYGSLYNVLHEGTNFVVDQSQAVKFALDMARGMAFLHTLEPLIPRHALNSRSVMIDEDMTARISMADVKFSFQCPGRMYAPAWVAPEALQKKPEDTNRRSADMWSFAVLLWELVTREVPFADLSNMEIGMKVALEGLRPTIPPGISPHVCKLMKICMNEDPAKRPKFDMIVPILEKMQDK
Procedure, shortened: as §1

[6] = molecular target: T6, LOK (STK10, IPI00304742) (Homo sapiens, UniProt O94804)
T6 construct: endogenous in cells; host or cells: HeLa S3
Procedure, shortened: as §1

[7] = molecular target: T7, MET (IPI00294528) (Homo sapiens, UniProt P08581)
T7 construct: endogenous in cells; host or cells: HeLa S3 cell lysate
Procedure, shortened: as §1

[8] = molecular target: T8, MRCKb (CDC42BPB, IPI00477763) (Homo sapiens, UniProt Q9Y5S2)
T8 construct: endogenous in cells; host or cells: HeLa S3
Procedure, shortened: as §1

[9] = molecular target: T9, NDR1 (STK38, IPI00027251) (Homo sapiens, UniProt Q15208)
T9 construct: endogenous in cells; host or cells: HeLa S3 cell lysate
Procedure, shortened: as §1

[10] = molecular target: T10, PHKg2 (PHKG2, IPI00012891) (Homo sapiens, UniProt P15735)
T10 construct: endogenous in cells; host or cells: HeLa S3
T10 sequence (P15735 1-406): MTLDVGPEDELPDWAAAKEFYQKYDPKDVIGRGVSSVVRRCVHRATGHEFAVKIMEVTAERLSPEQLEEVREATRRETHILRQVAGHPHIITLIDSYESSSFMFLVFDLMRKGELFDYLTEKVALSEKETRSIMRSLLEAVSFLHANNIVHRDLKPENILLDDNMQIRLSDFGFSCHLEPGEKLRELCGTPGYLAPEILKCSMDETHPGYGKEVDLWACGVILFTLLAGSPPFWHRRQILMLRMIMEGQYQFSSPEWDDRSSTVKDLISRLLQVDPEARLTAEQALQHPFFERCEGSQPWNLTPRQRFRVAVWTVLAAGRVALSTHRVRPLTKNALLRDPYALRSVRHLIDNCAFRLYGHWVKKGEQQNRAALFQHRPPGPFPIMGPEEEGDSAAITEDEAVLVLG
Procedure, shortened: as §1

[11] = molecular target: T11, PKACa (PRKACA, IPI00396630) (Homo sapiens, UniProt P17612)
T11 construct: endogenous in cells; host or cells: HeLa S3
Procedure, shortened: as §1

[12] = molecular target: T12, RPSA (IPI00413108) (Homo sapiens, UniProt P08865)
T12 construct: endogenous in cells; host or cells: HeLa S3
Procedure, shortened: as §1

[13] = control beads vs first incubation

T8 sequence (Q9Y5S2 whole entry): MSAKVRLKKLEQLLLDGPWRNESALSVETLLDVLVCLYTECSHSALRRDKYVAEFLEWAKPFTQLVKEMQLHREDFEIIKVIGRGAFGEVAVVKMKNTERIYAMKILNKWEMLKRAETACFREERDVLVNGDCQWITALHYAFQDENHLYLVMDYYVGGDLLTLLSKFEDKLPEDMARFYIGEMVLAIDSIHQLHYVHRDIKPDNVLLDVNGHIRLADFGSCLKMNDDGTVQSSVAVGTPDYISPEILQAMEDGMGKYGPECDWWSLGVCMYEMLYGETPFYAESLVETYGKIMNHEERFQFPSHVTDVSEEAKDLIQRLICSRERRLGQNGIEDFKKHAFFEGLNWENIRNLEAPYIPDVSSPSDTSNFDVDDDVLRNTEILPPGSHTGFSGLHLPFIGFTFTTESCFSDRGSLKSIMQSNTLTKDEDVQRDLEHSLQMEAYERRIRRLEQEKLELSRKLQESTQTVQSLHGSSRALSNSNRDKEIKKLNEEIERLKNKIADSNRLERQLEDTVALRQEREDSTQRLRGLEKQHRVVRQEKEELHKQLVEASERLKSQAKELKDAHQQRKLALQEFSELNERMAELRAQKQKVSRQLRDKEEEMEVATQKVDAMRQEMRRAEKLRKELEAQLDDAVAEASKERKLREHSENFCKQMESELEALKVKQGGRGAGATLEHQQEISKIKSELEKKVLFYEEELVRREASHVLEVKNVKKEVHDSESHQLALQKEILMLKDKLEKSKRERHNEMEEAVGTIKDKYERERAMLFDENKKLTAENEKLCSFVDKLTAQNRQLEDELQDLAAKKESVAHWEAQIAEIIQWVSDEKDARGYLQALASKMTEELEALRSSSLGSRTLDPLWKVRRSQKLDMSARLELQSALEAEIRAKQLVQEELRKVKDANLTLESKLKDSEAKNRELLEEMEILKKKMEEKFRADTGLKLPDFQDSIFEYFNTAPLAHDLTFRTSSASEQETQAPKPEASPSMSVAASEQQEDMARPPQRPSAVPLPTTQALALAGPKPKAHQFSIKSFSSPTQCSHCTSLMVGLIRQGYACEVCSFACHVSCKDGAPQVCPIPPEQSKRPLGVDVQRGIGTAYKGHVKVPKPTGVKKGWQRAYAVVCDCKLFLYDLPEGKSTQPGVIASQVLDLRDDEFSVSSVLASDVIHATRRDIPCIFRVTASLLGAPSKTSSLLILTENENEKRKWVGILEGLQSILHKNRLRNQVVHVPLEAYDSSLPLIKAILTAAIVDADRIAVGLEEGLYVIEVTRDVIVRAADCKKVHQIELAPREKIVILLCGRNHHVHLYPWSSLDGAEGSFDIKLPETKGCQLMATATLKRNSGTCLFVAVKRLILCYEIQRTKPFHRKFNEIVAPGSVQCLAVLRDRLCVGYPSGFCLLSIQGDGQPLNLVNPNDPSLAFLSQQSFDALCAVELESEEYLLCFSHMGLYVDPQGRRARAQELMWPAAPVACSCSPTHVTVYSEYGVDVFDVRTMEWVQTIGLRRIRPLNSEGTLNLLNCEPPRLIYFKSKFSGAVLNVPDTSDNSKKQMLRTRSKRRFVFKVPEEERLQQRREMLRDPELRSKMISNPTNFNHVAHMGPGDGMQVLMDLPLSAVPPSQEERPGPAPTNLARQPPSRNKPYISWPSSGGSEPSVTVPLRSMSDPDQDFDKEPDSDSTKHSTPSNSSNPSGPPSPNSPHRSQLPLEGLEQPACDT
T7 sequence (P08581 25-1390): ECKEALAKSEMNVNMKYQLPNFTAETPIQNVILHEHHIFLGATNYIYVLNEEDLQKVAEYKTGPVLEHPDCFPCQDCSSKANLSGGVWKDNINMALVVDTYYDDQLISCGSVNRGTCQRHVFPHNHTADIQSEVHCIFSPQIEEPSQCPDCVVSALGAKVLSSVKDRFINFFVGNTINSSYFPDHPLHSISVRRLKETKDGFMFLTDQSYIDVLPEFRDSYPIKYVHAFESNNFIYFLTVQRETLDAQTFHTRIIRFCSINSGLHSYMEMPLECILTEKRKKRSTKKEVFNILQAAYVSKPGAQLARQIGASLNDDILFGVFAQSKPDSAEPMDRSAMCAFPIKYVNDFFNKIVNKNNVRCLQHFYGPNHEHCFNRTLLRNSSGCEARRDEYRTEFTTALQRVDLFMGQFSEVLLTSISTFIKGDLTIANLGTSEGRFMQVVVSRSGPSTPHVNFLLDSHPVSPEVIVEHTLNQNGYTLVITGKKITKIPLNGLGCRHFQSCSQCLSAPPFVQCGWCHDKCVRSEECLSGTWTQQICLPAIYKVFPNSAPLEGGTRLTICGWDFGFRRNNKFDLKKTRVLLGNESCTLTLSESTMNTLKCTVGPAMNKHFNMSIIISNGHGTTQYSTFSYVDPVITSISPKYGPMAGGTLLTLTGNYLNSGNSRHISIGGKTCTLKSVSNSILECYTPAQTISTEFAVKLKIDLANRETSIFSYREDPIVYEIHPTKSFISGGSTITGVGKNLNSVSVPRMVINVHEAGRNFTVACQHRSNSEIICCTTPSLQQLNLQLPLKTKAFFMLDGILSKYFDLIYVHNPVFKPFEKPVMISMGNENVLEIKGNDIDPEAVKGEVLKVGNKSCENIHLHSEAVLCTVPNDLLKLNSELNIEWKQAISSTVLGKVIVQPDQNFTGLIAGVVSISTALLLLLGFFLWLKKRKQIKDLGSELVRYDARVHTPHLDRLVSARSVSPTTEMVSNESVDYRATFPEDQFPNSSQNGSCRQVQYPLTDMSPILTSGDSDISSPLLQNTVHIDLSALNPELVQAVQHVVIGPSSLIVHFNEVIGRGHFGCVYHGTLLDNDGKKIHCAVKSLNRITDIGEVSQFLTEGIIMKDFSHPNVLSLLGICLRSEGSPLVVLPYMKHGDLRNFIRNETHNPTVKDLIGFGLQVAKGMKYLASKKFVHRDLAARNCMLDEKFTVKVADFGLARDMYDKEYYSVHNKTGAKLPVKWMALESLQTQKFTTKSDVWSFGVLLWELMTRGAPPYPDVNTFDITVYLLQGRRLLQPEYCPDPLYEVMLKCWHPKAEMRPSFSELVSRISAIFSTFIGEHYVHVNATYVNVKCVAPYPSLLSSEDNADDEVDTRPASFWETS
T2 sequence (Q00534 whole entry): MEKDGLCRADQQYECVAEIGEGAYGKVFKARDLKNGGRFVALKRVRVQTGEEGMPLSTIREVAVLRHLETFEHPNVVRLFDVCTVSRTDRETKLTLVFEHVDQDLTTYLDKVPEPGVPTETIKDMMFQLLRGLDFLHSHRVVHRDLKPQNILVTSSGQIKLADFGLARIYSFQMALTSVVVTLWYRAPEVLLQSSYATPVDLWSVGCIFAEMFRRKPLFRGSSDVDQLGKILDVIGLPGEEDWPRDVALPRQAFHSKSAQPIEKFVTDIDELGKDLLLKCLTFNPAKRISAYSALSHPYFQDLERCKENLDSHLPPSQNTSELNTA
T4 sequence (O95819 whole entry): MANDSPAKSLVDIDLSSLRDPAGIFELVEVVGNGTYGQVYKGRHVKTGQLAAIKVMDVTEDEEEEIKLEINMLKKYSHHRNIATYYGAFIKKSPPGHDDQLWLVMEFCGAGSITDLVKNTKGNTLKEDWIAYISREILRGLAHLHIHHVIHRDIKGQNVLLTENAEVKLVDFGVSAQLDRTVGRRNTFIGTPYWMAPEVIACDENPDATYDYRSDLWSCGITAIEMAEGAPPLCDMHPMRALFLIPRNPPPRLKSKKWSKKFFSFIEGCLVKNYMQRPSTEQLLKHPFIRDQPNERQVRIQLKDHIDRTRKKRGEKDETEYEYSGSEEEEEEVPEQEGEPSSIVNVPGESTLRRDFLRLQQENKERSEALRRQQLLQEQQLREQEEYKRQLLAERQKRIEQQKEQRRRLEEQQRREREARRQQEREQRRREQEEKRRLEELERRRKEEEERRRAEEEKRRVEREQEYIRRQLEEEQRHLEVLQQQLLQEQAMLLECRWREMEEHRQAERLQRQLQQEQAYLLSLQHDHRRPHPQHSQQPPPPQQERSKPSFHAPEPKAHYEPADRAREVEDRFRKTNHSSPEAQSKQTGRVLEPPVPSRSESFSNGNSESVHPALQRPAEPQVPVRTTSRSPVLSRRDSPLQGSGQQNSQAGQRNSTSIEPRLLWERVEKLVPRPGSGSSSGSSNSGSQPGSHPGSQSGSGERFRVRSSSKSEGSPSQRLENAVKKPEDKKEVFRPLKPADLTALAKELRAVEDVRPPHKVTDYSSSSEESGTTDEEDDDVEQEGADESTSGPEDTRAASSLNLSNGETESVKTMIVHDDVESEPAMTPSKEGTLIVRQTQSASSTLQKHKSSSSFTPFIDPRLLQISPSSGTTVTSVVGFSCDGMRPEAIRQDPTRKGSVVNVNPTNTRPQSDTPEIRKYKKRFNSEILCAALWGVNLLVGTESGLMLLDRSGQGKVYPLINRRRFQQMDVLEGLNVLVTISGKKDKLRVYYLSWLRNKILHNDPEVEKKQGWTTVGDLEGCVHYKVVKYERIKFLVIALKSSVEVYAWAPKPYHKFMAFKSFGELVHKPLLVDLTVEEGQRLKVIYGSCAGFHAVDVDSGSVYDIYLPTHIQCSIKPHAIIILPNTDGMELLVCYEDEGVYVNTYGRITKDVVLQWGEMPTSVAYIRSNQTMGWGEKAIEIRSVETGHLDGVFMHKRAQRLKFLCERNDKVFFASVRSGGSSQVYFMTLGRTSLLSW
T9 sequence (Q15208 whole entry): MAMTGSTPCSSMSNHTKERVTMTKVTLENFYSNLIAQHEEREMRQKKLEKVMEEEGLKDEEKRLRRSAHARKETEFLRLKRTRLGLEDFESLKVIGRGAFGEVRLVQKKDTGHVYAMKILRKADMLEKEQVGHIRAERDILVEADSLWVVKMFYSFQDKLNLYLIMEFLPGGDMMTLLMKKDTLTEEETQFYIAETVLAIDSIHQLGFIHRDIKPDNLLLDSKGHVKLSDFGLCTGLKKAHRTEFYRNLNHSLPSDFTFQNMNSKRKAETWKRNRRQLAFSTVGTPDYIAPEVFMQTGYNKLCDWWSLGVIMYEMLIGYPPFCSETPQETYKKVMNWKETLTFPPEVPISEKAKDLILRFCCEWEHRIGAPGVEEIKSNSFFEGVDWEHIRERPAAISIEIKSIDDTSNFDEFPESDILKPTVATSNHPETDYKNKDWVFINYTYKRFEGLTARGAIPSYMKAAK

Q: With `CC(C)n1c(=O)ccc2cnc(Nc3ccc(OCCN)cc3)nc21` [V16742] as the compound, how does the “r (3 MG/1 MG LYSATE)” value ([1]; 3 mg vs 1 mg lysate) read?
A: 1.04

Q: What about the “r (5 h/2.5 h INC. TIME)” value ([1]; 5 h vs 2.5 h incubation time) of the same compound?
A: 1.40

Q: What about the “rAVERAGE (CTRL/1 INC)” value [1, 13] of the same compound?
A: 0.05

Q: And the Ki ([1]; immobilized VI16742)?
A: 223 µM

Q: And the “rAVERAGE (2 INC/1 INC)” value ([1]; second vs first incubation)?
A: 0.81

Q: What about the “r (5 h/2.5 h INC. TIME)” value ([2]; 5 h vs 2.5 h incubation time) of the same compound?
A: 0.75

Q: And the “rAVERAGE (CTRL/1 INC)” value [2, 13]?
A: 0.10

Q: What about the Ki ([2]; immobilized VI16742) of the same compound?
A: 119 µM

Q: And the “rAVERAGE (2 INC/1 INC)” value ([2]; second vs first incubation)?
A: 0.70

Q: And the “r (5 h/2.5 h INC. TIME)” value ([3]; 5 h vs 2.5 h incubation time)?
A: 2.72

Q: What about the “rAVERAGE (CTRL/1 INC)” value [3, 13] of the same compound?
A: 0.03

Q: And the Ki ([3]; immobilized VI16742)?
A: 211 µM

Q: What about the “rAVERAGE (2 INC/1 INC)” value ([3]; second vs first incubation) of the same compound?
A: 0.80

Q: What about the “rAVERAGE (CTRL/1 INC)” value [4, 13] of the same compound?
A: 0.05

Q: And the Ki ([4]; immobilized VI16742)?
A: 75.7 µM

Q: What about the “rAVERAGE (2 INC/1 INC)” value ([4]; second vs first incubation) of the same compound?
A: 0.59

Q: What about the “r (5 h/2.5 h INC. TIME)” value ([5]; 5 h vs 2.5 h incubation time) of the same compound?
A: 1.47

Q: What about the “rAVERAGE (CTRL/1 INC)” value [5, 13] of the same compound?
A: 0.03

Q: And the Ki ([5]; immobilized VI16742)?
A: 172 µM

Q: And the “rAVERAGE (2 INC/1 INC)” value ([5]; second vs first incubation)?
A: 0.77

Q: What about the “rAVERAGE (CTRL/1 INC)” value [6, 13] of the same compound?
A: 0.07

Q: What about the Ki ([6]; immobilized VI16742) of the same compound?
A: 164 µM

Q: And the “rAVERAGE (2 INC/1 INC)” value ([6]; second vs first incubation)?
A: 0.76

Q: And the “rAVERAGE (CTRL/1 INC)” value [7, 13]?
A: 0.08

Q: What about the Ki ([7]; immobilized VI16742) of the same compound?
A: 94.8 µM

Q: And the “rAVERAGE (2 INC/1 INC)” value ([7]; second vs first incubation)?
A: 0.65

Q: And the “r (3 MG/1 MG LYSATE)” value ([8]; 3 mg vs 1 mg lysate)?
A: 2.35

Q: What about the “r (5 h/2.5 h INC. TIME)” value ([8]; 5 h vs 2.5 h incubation time) of the same compound?
A: 1.34

Q: And the “rAVERAGE (CTRL/1 INC)” value [8, 13]?
A: 0.06

Q: And the Ki ([8]; immobilized VI16742)?
A: 301 µM

Q: And the “rAVERAGE (2 INC/1 INC)” value ([8]; second vs first incubation)?
A: 0.85

Q: What about the “rAVERAGE (CTRL/1 INC)” value [9, 13] of the same compound?
A: 0.01

Q: And the Ki ([9]; immobilized VI16742)?
A: 78.3 µM

Q: And the “rAVERAGE (2 INC/1 INC)” value ([9]; second vs first incubation)?
A: 0.60

Q: And the “r (3 MG/1 MG LYSATE)” value ([10]; 3 mg vs 1 mg lysate)?
A: 2.14

Q: What about the “r (5 h/2.5 h INC. TIME)” value ([10]; 5 h vs 2.5 h incubation time) of the same compound?
A: 1.33

Q: And the “rAVERAGE (CTRL/1 INC)” value [10, 13]?
A: 0.10

Q: And the Ki ([10]; immobilized VI16742)?
A: 296 µM

Q: And the “rAVERAGE (2 INC/1 INC)” value ([10]; second vs first incubation)?
A: 0.85

Q: And the “r (3 MG/1 MG LYSATE)” value ([11]; 3 mg vs 1 mg lysate)?
A: 2.18

Q: What about the “r (5 h/2.5 h INC. TIME)” value ([11]; 5 h vs 2.5 h incubation time) of the same compound?
A: 1.76

Q: What about the “rAVERAGE (CTRL/1 INC)” value [11, 13] of the same compound?
A: 0.04

Q: And the Ki ([11]; immobilized VI16742)?
A: 305 µM

Q: And the “rAVERAGE (2 INC/1 INC)” value ([11]; second vs first incubation)?
A: 0.85

Q: What about the “r (3 MG/1 MG LYSATE)” value ([12]; 3 mg vs 1 mg lysate) of the same compound?
A: 3.92

Q: And the “r (5 h/2.5 h INC. TIME)” value ([12]; 5 h vs 2.5 h incubation time)?
A: 2.26

Q: And the “rAVERAGE (CTRL/1 INC)” value [12, 13]?
A: 0.11

Q: And the Ki ([12]; immobilized VI16742)?
A: 185 µM

Q: What about the “rAVERAGE (2 INC/1 INC)” value ([12]; second vs first incubation) of the same compound?
A: 0.78

From patent US8959984B2, “Proteome-wide quantification of small molecule binding to cellular target proteins” (priority 2007, dated 2015)
